Measurements taken from US10597388B2, “Pyridazinone herbicides” (FMC CORPORATION, priority 2014, dated 2020).

Columns and labels:
Experiment in all cases: Test C greenhouse herbicide test, pre- and postemergence
Type in all cases: in vivo
[1] = tested on: morningglory (Ipomoea coccinea)
Method in brief: (§1)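 Each species was treated both before emergence, in a loam–sand soil mix, and after emergence, as 1- to 4-leaf seedlings in peat-based potting medium. Plants stayed in the greenhouse 13 to 15 d, then were scored from 0 (no effect) to 100 (complete control) relative to controls.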

[2] = tested on: blackgrass (Alopecurus myosuroides)
Method in brief: as §1

[3] = tested on: waterhemp (common waterhemp, Amaranthus rudis)
Method in brief: as §1

[4] = tested on: wheat (winter wheat, Triticum aestivum)
Method in brief: as §1

[5] = tested on: lambsquarters (Chenopodium album)
Method in brief: as §1

[6] = tested on: crabgrass, large (large crabgrass, Digitaria sanguinalis)
Method in brief: as §1

[7] = tested on: barnyardgrass (Echinochloa crus-galli)
Method in brief: as §1

[8] = tested on: velvetleaf (Abutilon theophrasti)
Method in brief: as §1

[9] = tested on: nutsedge, yellow (yellow nutsedge, Cyperus esculentus)
Method in brief: as §1

[10] = tested on: johnsongrass (Sorghum halepense)
Method in brief: as §1

[11] = tested on: pigweed (Amaranthus retroflexus)
Method in brief: as §1

corn (Zea mays) = tested on: corn (Zea mays)
Method in brief: as §1

[12] = tested on: ragweed (common ragweed, Ambrosia elatior)
Method in brief: as §1

soybean (Glycine max) = tested on: soybean (Glycine max)
Method in brief: as §1

[13] = tested on: ryegrass, Italian (Italian ryegrass, Lolium multiflorum)
Method in brief: as §1

[14] = Postemergence, 31 g ai/ha, 0 to 100 scale (0 no effect, 100 complete control)
[15] = Postemergence, 125 g ai/ha, scale 0 to 100, 0 is no effect, 100 is complete control
[16] = Postemergence, 250 g ai/ha, scale 0 to 100, 0 no effect, 100 complete control, 13 to 15 d
[17] = Preemergence, 31 g ai/ha, scale 0 to 100, 0 is no effect, 100 is complete control
[18] = Preemergence, 62 g ai/ha, scale 0 to 100, 0 is no effect, 100 is complete control
[19] = Preemergence, 125 g ai/ha, scale 0 to 100, 0 is no effect, 100 is complete control
[20] = Preemergence, 250 g ai/ha, scale 0 to 100, 0 no effect, 100 complete control
[21] = postemergence, 62 g ai/ha, scale 0 to 100, 0 no effect, 100 complete control

In the case of `Cc1nn(C)c(=O)c(-c2cccc3ccccc23)c1O` [Compound 11, 5-hydroxy-2,6-dimethyl-4-(1-naphthalenyl)-3(2H)-pyridazinone], the “Morningglory plant response rating” value [1, 14] is reported as 70, the “Plant response rating, Morningglory” value [1, 15] is reported as 90 and the “Plant response rating, Morningglory” value [1, 16] is reported as 98. For the same compound, the “Plant response rating, Morningglory” value [1, 17] was 100, the “Plant response rating, Morningglory” value [1, 18] was 100 and the “Plant response rating, Morningglory” value [1, 19] was 100. The “Morningglory plant response rating” value [1, 20] was 100, the “Morningglory plant response rating” value [1, 21] was 80 and the “Blackgrass plant response rating” value [2, 14] was 5. For the same compound, the “Plant response rating, Blackgrass” value [2, 15] was 30, the “Plant response rating, Blackgrass” value [2, 16] was 75 and the “Plant response rating, Blackgrass” value [2, 17] was 35. For the same compound, the “Plant response rating, Blackgrass” value [2, 18] was 40, the “Plant response rating, Blackgrass” value [2, 19] was 50 and the “Blackgrass plant response rating” value [2, 20] was 85. The “Blackgrass plant response rating” value [2, 21] was 15, the “Waterhemp plant response rating” value [3, 14] was 80 and the “Plant response rating, Waterhemp” value [3, 15] was 95. For the same compound, the “Plant response rating, Waterhemp” value [3, 16] was 95, the “Plant response rating, Waterhemp” value [3, 18] was 100 and the “Plant response rating, Waterhemp” value [3, 19] was 100. The “Waterhemp plant response rating” value [3, 20] was 100, the “Waterhemp plant response rating” value [3, 21] was 80 and the “Wheat plant response rating” value [4, 14] was 0. The “Plant response rating, Wheat” value [4, 15] was 5, the “Plant response rating, Wheat” value [4, 16] was 5 and the “Plant response rating, Wheat” value [4, 18] was 0. For the same compound, the “Plant response rating, Wheat” value [4, 19] was 0, the “Wheat plant response rating” value [4, 20] was 10 and the “Wheat plant response rating” value [4, 21] was 0. The “Lambsquarters plant response rating” value [5, 14] was 80, the “Plant response rating, Lambsquarters” value [5, 15] was 90 and the “Plant response rating, Lambsquarters” value [5, 16] was 90. For the same compound, the “Plant response rating, Lambsquarters” value [5, 17] was 70, the “Plant response rating, Lambsquarters” value [5, 18] was 100 and the “Plant response rating, Lambsquarters” value [5, 19] was 100. The “Lambsquarters plant response rating” value [5, 20] was 100, the “Lambsquarters plant response rating” value [5, 21] was 90 and the “Crabgrass, Large plant response rating” value [6, 14] was 0. The “Plant response rating, Crabgrass, Large” value [6, 15] was 0, the “Plant response rating, Crabgrass, Large” value [6, 16] was 10 and the “Plant response rating, Crabgrass, Large” value [6, 17] was 0. The “Plant response rating, Crabgrass, Large” value [6, 18] was 0, the “Plant response rating, Crabgrass, Large” value [6, 19] was 40 and the “Crabgrass, Large plant response rating” value [6, 20] was 40. The “Crabgrass, Large plant response rating” value [6, 21] was 0, the “Barnyardgrass plant response rating” value [7, 14] was 0 and the “Plant response rating, Barnyardgrass” value [7, 15] was 5. For the same compound, the “Plant response rating, Barnyardgrass” value [7, 16] was 15, the “Plant response rating, Barnyardgrass” value [7, 17] was 0 and the “Plant response rating, Barnyardgrass” value [7, 18] was 0. The “Plant response rating, Barnyardgrass” value [7, 19] was 10, the “Barnyardgrass plant response rating” value [7, 20] was 80 and the “Barnyardgrass plant response rating” value [7, 21] was 0. For the same compound, the “Velvetleaf plant response rating” value [8, 14] was 0, the “Plant response rating, Velvetleaf” value [8, 15] was 45 and the “Plant response rating, Velvetleaf” value [8, 16] was 80. For the same compound, the “Plant response rating, Velvetleaf” value [8, 18] was 10, the “Plant response rating, Velvetleaf” value [8, 19] was 90 and the “Velvetleaf plant response rating” value [8, 20] was 90. For the same compound, the “Velvetleaf plant response rating” value [8, 21] was 5, the “Nutsedge, Yellow plant response rating” value [9, 14] was 5 and the “Plant response rating, Nutsedge, Yellow” value [9, 15] was 30. For the same compound, the “Plant response rating, Nutsedge, Yellow” value [9, 16] was 45, the “Plant response rating, Nutsedge, Yellow” value [9, 17] was 0 and the “Plant response rating, Nutsedge, Yellow” value [9, 18] was 5. The “Plant response rating, Nutsedge, Yellow” value [9, 19] was 10, the “Nutsedge, Yellow plant response rating” value [9, 20] was 30 and the “Nutsedge, Yellow plant response rating” value [9, 21] was 15. The “Johnsongrass plant response rating” value [10, 14] was 0, the “Plant response rating, Johnsongrass” value [10, 15] was 5 and the “Plant response rating, Johnsongrass” value [10, 16] was 5. For the same compound, the “Plant response rating, Johnsongrass” value [10, 17] was 0, the “Plant response rating, Johnsongrass” value [10, 18] was 0 and the “Plant response rating, Johnsongrass” value [10, 19] was 0. For the same compound, the “Johnsongrass plant response rating” value [10, 20] was 0, the “Johnsongrass plant response rating” value [10, 21] was 0 and the “Pigweed plant response rating” value [11, 14] was 50. The “Plant response rating, Pigweed” value [11, 15] was 90, the “Plant response rating, Pigweed” value [11, 16] was 95 and the “Plant response rating, Pigweed” value [11, 17] was 0. For the same compound, the “Plant response rating, Pigweed” value [11, 18] was 100, the “Plant response rating, Pigweed” value [11, 19] was 100 and the “Pigweed plant response rating” value [11, 20] was 100. The “Pigweed plant response rating” value [11, 21] was 90, the “Corn plant response rating” value (corn (Zea mays); [14]) was 0 and the “Plant response rating, Corn” value (corn (Zea mays); [15]) was 0. The “Plant response rating, Corn” value (corn (Zea mays); [16]) was 0, the “Plant response rating, Corn” value (corn (Zea mays); [17]) was 0 and the “Plant response rating, Corn” value (corn (Zea mays); [18]) was 0. The “Plant response rating, Corn” value (corn (Zea mays); [19]) was 0, the “Corn plant response rating” value (corn (Zea mays); [20]) was 0 and the “Corn plant response rating” value (corn (Zea mays); [21]) was 0. For the same compound, the “Ragweed plant response rating” value [12, 14] was 0, the “Plant response rating, Ragweed” value [12, 15] was 95 and the “Plant response rating, Ragweed” value [12, 16] was 95. For the same compound, the “Plant response rating, Ragweed” value [12, 17] was 15, the “Plant response rating, Ragweed” value [12, 18] was 50 and the “Plant response rating, Ragweed” value [12, 19] was 80. For the same compound, the “Ragweed plant response rating” value [12, 20] was 90, the “Ragweed plant response rating” value [12, 21] was 40 and the “Soybean plant response rating” value (soybean (Glycine max); [14]) was 0. For the same compound, the “Plant response rating, Soybean” value (soybean (Glycine max); [15]) was 0, the “Plant response rating, Soybean” value (soybean (Glycine max); [16]) was 0 and the “Plant response rating, Soybean” value (soybean (Glycine max); [18]) was 0. The “Plant response rating, Soybean” value (soybean (Glycine max); [19]) was 0, the “Soybean plant response rating” value (soybean (Glycine max); [20]) was 0 and the “Soybean plant response rating” value (soybean (Glycine max); [21]) was 0. The “Ryegrass, Italian plant response rating” value [13, 14] was 70, the “Plant response rating, Ryegrass, Italian” value [13, 15] was 90 and the “Plant response rating, Ryegrass, Italian” value [13, 16] was 90. The “Plant response rating, Ryegrass, Italian” value [13, 17] was 90, the “Plant response rating, Ryegrass, Italian” value [13, 18] was 95 and the “Plant response rating, Ryegrass, Italian” value [13, 19] was 100. For the same compound, the “Ryegrass, Italian plant response rating” value [13, 20] was 100 and the “Ryegrass, Italian plant response rating” value [13, 21] was 70.
